Measured values: patent publication US6887847B2, “Virus derived antimicrobial peptides” (University of Pittsburgh, priority 2001, dated 2005)
≈ marks a conversion by molar mass, not a printed value. Like-named read-outs stand apart in the source and are kept apart here. Residues, ends and D or L forms follow the SMILES beside them.

Assays:
[1] = molecular target: Ca^2+-saturated calmodulin (Homo sapiens, UniProt P0DP23); conditions: host cell Ca^2+-saturated calmodulin; cited from earlier work
[2] = test system: diverse gram-negative and -positive bacterial isolates; conditions: cited from earlier work
[3] = test system: Staphylococcus aureus; conditions: 1×10^5 colony-forming units; cited from earlier work
[4] = Rabbit joint model of septic arthritis; format: in vivo, New Zealand white rabbit; conditions: peptide administered alone, all animal experiments
Text: We have extended these findings to a septic arthritis animal model. In this study joint sepsis was induced by inoculating one knee of a 2.5 Kg New Zealand white rabbit with 1×10^5 colony forming units of a clinical S. aureus isolate, a strain resistant to penicillin but sensitive to methicillin, cephalosporins, and clindamycin. Using this model, symptoms of septic arthritis (e.g., degradation of the synovium) were monitored and the ability of antimicrobial agents to limit the degeneration of the joint post-infection can be assessed. In this application the bacterial infection is allowed to establish for 1 h. At this point the joint was accessed and increasing concentrations of LSA-5 (SEQ ID NO:2) (0, 50, 100, and 200 μM) in phosphate buffer (PB) was administered intraarticularly. The concentration of bacteria associated with joint fluid was established at time 0 and 1 h post LSA-5 (SEQ ID NO:2) instillation by plating dilutions of the synovial fluid on LB agar.
This was compared with multiple injections of a standard 0.35% neomycin or a combination of neomycin and LSA-5 (SEQ ID NO:2). Administration of each of these formulations was performed intraarticularly at time 0,1, and 2 h.

[5] = test system: Methicillin Resistant S. aureus; format: cell-based, Staphylococcus aureus; conditions: 0 mM NaCl (phosphate buffer, low salt)
Text: (§1) The assays for growth inhibition of a microbial target can be used to derive a minimum bactericidal concentration (MBC) value for the peptide, i.e., the concentration of peptide required to kill 99.9% of the microbial sample being tested. This value is well known to those in the art as representative of the effectiveness of a particular antimicrobial agent (e.g., an antibiotic) against a particular organism or group of organisms. In assays to detect the MBC of a peptide, growth inhibition of a bacterial population also can be measured with reference to the number of colony forming units (cfu) after exposure to a peptide relative to a control experiment without a peptide.
Bacterial lysis assay. Bacterial lysis assays were conducted in a manner similar to that described previously (Lehrer, R. I., M. E. Selsted, D. Szklarek, and F. J. 1983. Infect. Immun. 42: 10-4, 1983; Miller, M. A., R. F. Garry, J. M. Jaynes, and R. C. Montelaro, AIDS Res Hum Retroviruses 7: 511-519, 1991). Bacterial suspensions were cultured in Luria-Bertani Broth to mid-log growth phase and washed by two cycles of centrifugation and suspension in 10 mM phosphate buffer. […] Colonies of surviving bacteria (cfu, colony-forming units) were counted and compared to untreated controls to determine the amount of peptide-induced killing under each condition. […]

[6] = test system: Pseudomonas aeruginosa; format: cell-based
Text: as §1
(§2) Bacterial lysis assay. Bacterial lysis assays were conducted in a manner similar to that described previously (Lehrer, R. I., M. E. Selsted, D. Szklarek, and F. J. 1983. Infect. Immun. 42: 10-4, 1983; Miller, M. A., R. F. Garry, J. M. Jaynes, and R. C. Montelaro, AIDS Res Hum Retroviruses 7: 511-519, 1991). Bacterial suspensions were cultured in Luria-Bertani Broth to mid-log growth phase and washed by two cycles of centrifugation and suspension in 10 mM phosphate buffer. The Abs600 of the suspension was adjusted with 10 mM phosphate buffer such that, upon dilution, 5-10×10^5 cfu/mL would be treated in the assay. Bacteria were incubated for 1 h with two-fold dilutions of peptides (100 μM to 100 nM) in 96-well plates using 10 mM phosphate buffer, pH 7.2, as a diluent. Ten-fold dilutions of bacteria were performed to 1:1000; a 100 μl aliquot from each condition was spread on the surface of tryptic soy agar plates (Difco, Detroit, Mich.) which were incubated overnight. Colonies of surviving bacteria (cfu, colony-forming units) were counted and compared to untreated controls to determine the amount of peptide-induced killing under each condition. Log killing is defined as the log of the ratio of cfu present before and after treatment with peptide. The minimal bactericidal concentration, MBC, is the peptide concentration at which 99.9% (three log) killing is achieved (Pearson et al., Antimicrob. Agents Chemother. 18: 699-708, 1980).
(§3) A limitation of many host-derived antimicrobial peptides is their decreased activity at physiologic (150 mM) NaCl concentration. See Friedrich et al., Antimicrobial Agents and Chemotherapy 43:1542-1548. The peptides WLSA-5 (SEQ ID NO:3) and LL37 were tested against the two index strains at physiologic NaCl. […] The activity of eLLPs and LBUs of this invention were compared to an expanded list of clinical bacterial isolates. These are summarized in Table 2 by comparing their MBCs in phosphate buffer alone (low salt) and phosphate buffer containing 150 mM NaCl (physiologic conditions). Inspection of this table would lead one skilled in the art to conclude that the activity of eLLPs and LBUs compare favorably to the host derived antimicrobial peptides as it relates to the spectrum and potency of antimicrobial activity.

[7] = test system: Staphylococcus aureus; assay: Bacterial lysis (broth dilution) assay, MBC; format: cell-based
Text: as §1, §2, §3

[8] = test system: differentiated primary human airway epithelial cells; assay: Cystic fibrosis cell culture model: transepithelial resistance; format: cell-based; conditions: compared with LL-37
Protocol: Preparation of eukaryotic cells. Differentiated primary cell cultures of human bronchial epithelial (HBE) cells (CF and non-CF) on an air-liquid interface were prepared in antibiotic free media. See Zabner, J. et al., 1996, J Virol. 70:6994-7003. These filters were incubated with P. aeruginosa followed by washing to remove non-adherent bacteria. Individual filters were next exposed to peptide at increasing concentrations. In order to release viable bacteria, trypsin/EDTA was added and these preparations were plated on standard bacteriologic media to quantify bacterial survival. Similarly prepared cells were monitored for peptide toxicity by measuring transepithelial resistance. The advantage of this model is that it can measure the selective toxicity of peptide for bacterium versus host cells under identical conditions.
Based on above in vitro findings, WLSA-5 (SEQ ID NO:3) was tested in a scenario that more accurately assessed its selective toxicity. For this assay, a cell culture model of bacterial adherence was established that utilized differentiated primary human airway epithelial cells. […] The ability of peptide to kill bacteria is monitored as a function of viable bacteria associated with the epithelial cells after peptide exposure. […]

[9] = 0 mM NaCl (phosphate buffer, low salt)

SMILES | calmodulin binding affinity [1] | antibacterial activity compared with magainin-2 [2] | time to nearly sterilize suspension [3] | adverse toxicity [4] | MBC [5] | MBC [6, 9] | MBC ([6]; 150 mM NaCl (physiologic)) | MBC [7, 9] | MBC ([7]; 150 mM NaCl (physiologic)) | effect on transepithelial resistance [8]
CC[C@H](C)[C@H](NC(=O)[C@H](C)NC(=O)[C@H](CCCNC(=N)N)NC(=O)[C@H](CS)NC(=O)[C@H](C)NC(=O)CNC(=O)[C@H](CCC(N)=O)NC(=O)[C@@H](NC(=O)[C@@H](NC(=O)[C@H](CCC(=O)O)NC(=O)[C@@H](NC(=O)[C@@H](NC(=O)[C@@H](N)CCCNC(=N)N)C(C)C)[C@@H](C)CC)C(C)C)C(C)C)C(=O)N[C@@H](CCCNC(=N)N)C(=O)N[C@@H](Cc1c[nH]cn1)C(=O)N[C@H](C(=O)N1CCC[C@H]1C(=O)N[C@@H](CCCNC(=N)N)C(=O)N[C@@H](CCCNC(=N)N)C(=O)N[C@H](C(=O)N[C@@H](CCCNC(=N)N)C(=O)N[C@@H](CCC(N)=O)C(=O)NCC(=O)N[C@@H](CC(C)C)C(=O)N[C@@H](CCC(=O)O)C(=O)N[C@@H](CCCNC(=N)N)C(=O)N[C@H](C(=O)N[C@@H](CC(C)C)C(=O)O)[C@@H](C)CC)[C@@H](C)CC)[C@@H](C)CC [LLP1] (H-RVIEVVQGACRAIRHIPRRIRQGLERIL-OH; N-terminus and C-terminus assumed) | near nanomolar affinity | equal to, or more potent than magainin-2 | ≤ 60 s | – | – | – | – | – | – | –
CC[C@H](C)[C@H](NC(=O)[C@H](C)NC(=O)[C@H](CCCNC(=N)N)NC(=O)[C@H](CS)NC(=O)[C@H](C)NC(=O)[C@H](CCCNC(=N)N)NC(=O)[C@H](CCC(N)=O)NC(=O)[C@@H](NC(=O)[C@@H](NC(=O)[C@H](CCCNC(=N)N)NC(=O)[C@@H](NC(=O)[C@@H](NC(=O)[C@@H](N)CCCNC(=N)N)C(C)C)[C@@H](C)CC)C(C)C)C(C)C)C(=O)N[C@@H](CCCNC(=N)N)C(=O)N[C@@H](Cc1c[nH]cn1)C(=O)N[C@H](C(=O)N[C@H](C(=O)N[C@@H](CCCNC(=N)N)C(=O)N[C@@H](CCCNC(=N)N)C(=O)N[C@H](C(=O)N[C@@H](CCCNC(=N)N)C(=O)N[C@@H](CCC(N)=O)C(=O)NCC(=O)N[C@@H](CC(C)C)C(=O)N[C@@H](CCCNC(=N)N)C(=O)N[C@@H](CCCNC(=N)N)C(=O)N[C@H](C(=O)N[C@@H](CC(C)C)C(=O)N[C@@H](CCCNC(=N)N)C(=O)N[C@H](C(=O)N[C@H](C(=O)O)C(C)C)C(C)C)[C@@H](C)CC)[C@@H](C)CC)C(C)C)[C@@H](C)CC [LSA-5] (H-RVIRVVQRACRAIRHIVRRIRQGLRRILRVV-OH) | – | – | – | no adverse toxicity was observed | 0.15 µM | 0.8 µM | 0.8 µM (≈ 3.06 µg/mL) | 1 µM | 1 µM (≈ 3.82 µg/mL) | –
CC[C@H](C)[C@H](NC(=O)[C@H](C)NC(=O)[C@H](CCCNC(=N)N)NC(=O)[C@H](CS)NC(=O)[C@H](C)NC(=O)[C@H](CCCNC(=N)N)NC(=O)[C@H](CCC(N)=O)NC(=O)[C@@H](NC(=O)[C@@H](NC(=O)[C@H](CCCNC(=N)N)NC(=O)[C@@H](NC(=O)[C@@H](NC(=O)[C@@H](N)CCCNC(=N)N)C(C)C)[C@@H](C)CC)C(C)C)C(C)C)C(=O)N[C@@H](CCCNC(=N)N)C(=O)N[C@@H](Cc1c[nH]cn1)C(=O)N[C@H](C(=O)N[C@H](C(=O)N[C@@H](CCCNC(=N)N)C(=O)N[C@@H](CCCNC(=N)N)C(=O)N[C@H](C(=O)N[C@@H](CCCNC(=N)N)C(=O)N[C@@H](CCC(N)=O)C(=O)NCC(=O)N[C@@H](CC(C)C)C(=O)N[C@@H](CCCNC(=N)N)C(=O)N[C@@H](CCCNC(=N)N)C(=O)N[C@H](C(=O)N[C@@H](CC(C)C)C(=O)O)[C@@H](C)CC)[C@@H](C)CC)C(C)C)[C@@H](C)CC [SA-5] (H-RVIRVVQRACRAIRHIVRRIRQGLRRIL-OH; N-terminus and C-terminus assumed) | – | – | – | – | – | 1 µM | 1 µM (≈ 3.46 µg/mL) | 1 µM | – | –
CC[C@H](C)[C@H](NC(=O)[C@H](C)NC(=O)[C@H](CCCNC(=N)N)NC(=O)[C@H](CS)NC(=O)[C@H](Cc1c[nH]c2ccccc12)NC(=O)[C@H](CCCNC(=N)N)NC(=O)[C@H](CCC(N)=O)NC(=O)[C@@H](NC(=O)[C@@H](NC(=O)[C@H](CCCNC(=N)N)NC(=O)[C@@H](NC(=O)[C@H](Cc1c[nH]c2ccccc12)NC(=O)[C@@H](N)CCCNC(=N)N)[C@@H](C)CC)C(C)C)C(C)C)C(=O)N[C@@H](CCCNC(=N)N)C(=O)N[C@@H](Cc1c[nH]cn1)C(=O)N[C@H](C(=O)N[C@@H](Cc1c[nH]c2ccccc12)C(=O)N[C@@H](CCCNC(=N)N)C(=O)N[C@@H](CCCNC(=N)N)C(=O)N[C@H](C(=O)N[C@@H](CCCNC(=N)N)C(=O)N[C@@H](CCC(N)=O)C(=O)NCC(=O)N[C@@H](CC(C)C)C(=O)N[C@@H](CCCNC(=N)N)C(=O)N[C@@H](CCCNC(=N)N)C(=O)N[C@@H](Cc1c[nH]c2ccccc12)C(=O)N[C@@H](CC(C)C)C(=O)N[C@@H](CCCNC(=N)N)C(=O)N[C@H](C(=O)N[C@H](C(=O)O)C(C)C)C(C)C)[C@@H](C)CC)[C@@H](C)CC [WLSA-5] (H-RWIRVVQRWCRAIRHIWRRIRQGLRRWLRVV-OH) | – | – | – | – | 0.15 µM | 1 µM | 1 µM (≈ 4.18 µg/mL) | 1 µM | 1 µM (≈ 4.18 µg/mL) | transient and not significantly different from LL-37
